≈ marks a conversion by molar mass, not a printed value. Each block holds one molecule with its values, some of them ahead of it.
Columns and labels:
Test in all cases: ≥ marks a high value that may be exact or a test limit, other limits are often not marked, values filed in µg/mL are converted to µM
[1] = test system: Stenotrophomonas maltophilia CUN 3998-00
[2] = test system: Escherichia coli ATCC 25922
[3] = test system: Staphylococcus aureus ATCC 43300
[4] = test system: Pseudomonas aeruginosa ATCC 27853
[5] = test system: Staphylococcus aureus ATCC 25923
[6] = test system: Bordetella bronchiseptica CUN 11844-99
[7] = test system: Pseudomonas aeruginosa CUN 4158-02
[8] = test system: Acinetobacter baumannii ATCC 19606
[9] = test system: Staphylococcus aureus CUN 3792-99
[10] = test system: Streptococcus gordonii Challis DL1
[11] = test system: Veillonella atypica PK1910
[12] = test system: Streptococcus mitis ATCC 903
Streptococcus mutans = test system: Streptococcus mutans
[13] = test system: Streptococcus sanguinis NY101
[14] = test system: Lacticaseibacillus casei ATCC 4646
Serratia marcescens = test system: Serratia marcescens
Salmonella typhimurium = test system: Salmonella typhimurium
Escherichia coli = test system: Escherichia coli
Candida albicans = test system: Candida albicans
Saccharomyces cerevisiae = test system: Saccharomyces cerevisiae
Bacillus subtilis = test system: Bacillus subtilis
Cryptococcus neoformans = test system: Cryptococcus neoformans
Pseudomonas putida = test system: Pseudomonas putida
Streptococcus pneumoniae = test system: Streptococcus pneumoniae
Staphylococcus aureus = test system: Staphylococcus aureus
[15] = test system: Escherichia coli IFO 12734
Listeria innocua = test system: Listeria innocua
[16] = test system: Bacillus subtilis IFO 3134
[17] = test system: Pseudomonas aeruginosa IFO 12582
Leuconostoc lactis = test system: Leuconostoc lactis
Bacillus cereus = test system: Bacillus cereus
[18] = test system: Staphylococcus epidermidis
Streptococcus uberis = test system: Streptococcus uberis
Enterococcus faecalis = test system: Enterococcus faecalis
Pasteurella multocida = test system: Pasteurella multocida
[19] = test system: Staphylococcus aureus IFO 12732
Micrococcus luteus = test system: Micrococcus luteus

Structure (SMILES): NCCCC[C@H](NC(=O)CNC(=O)[C@H](CCCCN)NC(=O)[C@H](Cc1ccccc1)NC(=O)[C@H](CCCCN)NC(=O)[C@H](Cc1c[nH]c2ccccc12)NC(=O)[C@H](CCCN=C(N)N)NC(=O)[C@H](Cc1ccccc1)NC(=O)[C@H](CCCN=C(N)N)NC(=O)[C@H](CCCN=C(N)N)NC(=O)[C@H](Cc1ccc(O)cc1)NC(=O)[C@H](CCCCN)NC(=O)[C@H](CCCCN)NC(=O)[C@H](CS)NC(=O)CN)C(=O)N[C@@H](Cc1ccccc1)C(=O)N[C@@H](Cc1c[nH]c2ccccc12)C(=O)N[C@@H](Cc1ccccc1)C(=O)N[C@@H](Cc1c[nH]c2ccccc12)C(=O)NCC(=O)NCC(N)=O [GCKKYRRFRWKFKGKFWFWGG]
MIC [1]: ≥ 185 µM | MIC [2]: 46.2 µM (≈ 128 µg/mL) | MIC [3]: 46.2 µM (≈ 128 µg/mL) | MIC [4]: 46.2 µM (≈ 128 µg/mL) | MIC [5]: 46.2 µM (≈ 128 µg/mL) | MIC [6]: 11.6 µM (≈ 32 µg/mL) | MIC [7]: ≥ 92.4 µM | MIC [8]: 23.1 µM (≈ 64 µg/mL) | MIC [9]: ≥ 370 µM

Structure (SMILES): NCCCC[C@H](NC(=O)[C@H](Cc1c[nH]c2ccccc12)NC(=O)[C@H](Cc1ccccc1)NC(=O)[C@H](CCCCN)NC(=O)[C@H](CCCCN)NC(=O)[C@@H](N)Cc1ccccc1)C(=O)N[C@@H](Cc1c[nH]c2ccccc12)C(=O)N[C@@H](Cc1ccccc1)C(=O)N[C@@H](CCCN=C(N)N)C(=O)N[C@@H](CCCN=C(N)N)C(=O)N[C@@H](Cc1ccccc1)C(=O)NCC(=O)NCC(=O)NCC(=O)N[C@@H](CCCN=C(N)N)C(=O)N[C@@H](Cc1c[nH]c2ccccc12)C(=O)N[C@@H](CCCN=C(N)N)C(=O)N[C@@H](Cc1c[nH]c2ccccc12)C(=O)N[C@@H](CCCN=C(N)N)C(=O)N[C@@H](Cc1c[nH]c2ccccc12)C(=O)N[C@@H](Cc1ccccc1)C(N)=O [FKKFWKWFRRFGGGRWRWRWF]
MIC [10]: 10.6 µM (≈ 32 µg/mL) | MIC [11]: 2.65 µM (≈ 8 µg/mL) | MIC [12]: 21.2 µM (≈ 64 µg/mL) | MIC (Streptococcus mutans): 2.65 µM (≈ 8 µg/mL) | MIC [13]: 5.3 µM (≈ 16 µg/mL) | MIC [14]: 2.65 µM (≈ 8 µg/mL)

Structure (SMILES): CC(C)C[C@H](NC(=O)[C@H](Cc1ccccc1)NC(=O)[C@H](CCCN=C(N)N)NC(=O)[C@H](CCCCN)NC(=O)[C@@H](N)CC(C)C)C(=O)N[C@@H](CCCCN)C(=O)N[C@@H](Cc1c[nH]c2ccccc12)C(=O)N[C@@H](Cc1ccccc1)C(=O)N[C@@H](CCCCN)C(=O)N[C@@H](CCCN=C(N)N)C(=O)N[C@@H](Cc1ccccc1)C(=O)NCC(=O)NCC(=O)NCC(=O)N[C@@H](CCCN=C(N)N)C(=O)N[C@@H](Cc1c[nH]c2ccccc12)C(=O)N[C@@H](CCCN=C(N)N)C(=O)N[C@@H](Cc1c[nH]c2ccccc12)C(=O)N[C@@H](CCCN=C(N)N)C(=O)N[C@@H](Cc1c[nH]c2ccccc12)C(=O)N[C@@H](Cc1ccccc1)C(N)=O [LKRFLKWFKRFGGGRWRWRWF]
MIC [10]: 22 µM (≈ 64 µg/mL) | MIC [11]: 2.74 µM (≈ 8 µg/mL) | MIC [12]: 22 µM (≈ 64 µg/mL) | MIC (Streptococcus mutans): 2.74 µM (≈ 8 µg/mL) | MIC [13]: 5.49 µM (≈ 16 µg/mL) | MIC [14]: 5.49 µM (≈ 16 µg/mL)

Structure (SMILES): CC[C@H](C)[C@H](N=C(O)[C@H](C)N=C(O)[C@H](C)N=C(O)[C@@H](N=C(O)[C@@H](N=C(O)[C@H](Cc1cnc[nH]1)N=C(O)[C@H](C)N=C(O)[C@H](C)N=C(O)[C@@H](N=C(O)[C@H](CCCCN)N=C(O)[C@H](C)N=C(O)[C@H](CC(C)C)N=C(O)[C@@H](N=C(O)CN=C(O)[C@H](Cc1ccccc1)N=C(O)[C@H](CC(C)C)N=C(O)CN)C(C)C)C(C)C)C(C)C)C(C)C)C(O)=N[C@@H](C)C(O)=N[C@@H](CCC(=O)O)C(O)=N[C@@H](Cc1cnc[nH]1)C(O)=N[C@@H](Cc1ccccc1)C(=N)O [GLFGVLAKVAAHVVAAIAEHF]
MIC [15]: ≥ 64 µM | MIC (Listeria innocua): ≥ 47.2 µM | MIC [16]: 8 µM (≈ 17 µg/mL) | MIC [17]: ≥ 64 µM | MIC (Escherichia coli): > 47.2 µM | MIC (Leuconostoc lactis): 5.66 µM (≈ 12 µg/mL) | MIC (Bacillus cereus): ≥ 47.2 µM | MIC [18]: ≥ 47.2 µM | MIC (Streptococcus uberis): 23.6 µM (≈ 50 µg/mL) | MIC (Enterococcus faecalis): ≥ 47.2 µM | MIC (Pasteurella multocida): ≥ 47.2 µM | MIC [19]: 4 µM (≈ 8.48 µg/mL) | MIC (Staphylococcus aureus): 33.3 µM (≈ 70.7 µg/mL) | MIC (Micrococcus luteus): 23.6 µM (≈ 50 µg/mL)

Continued, values first:

MIC (Serratia marcescens): ≥ 37.2 µM | MIC (Salmonella typhimurium): 18.6 µM (≈ 32 µg/mL) | MIC (Escherichia coli): 37.2 µM (≈ 64 µg/mL) | MIC (Candida albicans): > 149 µM | MIC (Saccharomyces cerevisiae): ≥ 149 µM | MIC (Bacillus subtilis): ≥ 37.2 µM | MIC (Cryptococcus neoformans): ≥ 74.5 µM | MIC (Pseudomonas putida): ≥ 37.2 µM | MIC (Streptococcus mutans): ≥ 37.2 µM | MIC (Streptococcus pneumoniae): ≥ 74.5 µM | MIC (Staphylococcus aureus): 74.5 µM (≈ 128 µg/mL)
Structure (SMILES): CC(C)C[C@H](NC(=O)[C@H](CC(C)C)NC(=O)[C@H](CCCN=C(N)N)NC(=O)[C@H](Cc1cnc[nH]1)NC(=O)[C@@H](NC(=O)[C@H](CCCN=C(N)N)NC(=O)CNC(=O)[C@@H](NC(=O)[C@@H]1CCCN1C(=O)[C@H](Cc1ccccc1)NC(=O)[C@H](CCC(N)=O)NC(=O)[C@H](CC(C)C)NC(=O)CNC(=O)[C@H](C)NC(=O)[C@@H](N)CCCN=C(N)N)C(C)C)C(C)C)C(=O)O [RAGLQFPVGRVHRLL]

MIC [1]: ≥ 385 µM | MIC [2]: 385 µM (≈ 1020 µg/mL) | MIC [3]: 24.1 µM (≈ 64 µg/mL) | MIC [4]: 96.3 µM (≈ 256 µg/mL) | MIC [5]: 385 µM (≈ 1020 µg/mL) | MIC [6]: 6.02 µM (≈ 16 µg/mL) | MIC [7]: ≥ 96.3 µM | MIC [8]: 24.1 µM (≈ 64 µg/mL) | MIC [9]: 12 µM (≈ 32 µg/mL)
Structure (SMILES): CC(C)C[C@H](NC(=O)[C@H](Cc1c[nH]c2ccccc12)NC(=O)[C@H](CC(C)C)NC(=O)[C@H](CCCCN)NC(=O)[C@H](CCC(N)=O)NC(=O)[C@H](CCCCN)NC(=O)[C@H](CS)NC(=O)[C@H](CCCCN)NC(=O)[C@H](CC(C)C)NC(=O)[C@H](CCCCN)NC(=O)[C@H](Cc1ccccc1)NC(=O)[C@H](CCCNC(=N)N)NC(=O)[C@H](CCCNC(=N)N)NC(=O)[C@H](Cc1ccccc1)NC(=O)[C@H](CCCCN)NC(=O)[C@H](CCCCN)NC(=O)[C@H](CS)NC(=O)CN)C(=O)N[C@@H](Cc1c[nH]c2ccccc12)C(=O)N[C@@H](CS)C(=O)NCC(=O)O [GCKKFRRFKLKCKQKLWLWCG]

MIC [15]: ≥ 64 µM | MIC (Listeria innocua): ≥ 50.6 µM | MIC [16]: ≥ 64 µM | MIC [17]: ≥ 64 µM | MIC (Escherichia coli): > 50.6 µM | MIC (Leuconostoc lactis): ≥ 50.6 µM | MIC (Bacillus cereus): ≥ 50.6 µM | MIC [18]: ≥ 50.6 µM | MIC (Streptococcus uberis): ≥ 50.6 µM | MIC (Enterococcus faecalis): ≥ 50.6 µM | MIC (Pasteurella multocida): ≥ 50.6 µM | MIC [19]: ≥ 64 µM | MIC (Micrococcus luteus): ≥ 50.6 µM
Structure (SMILES): CC[C@H](C)[C@H](NC(=O)[C@H](C)NC(=O)[C@@H]1CCCN1C(=O)[C@@H](NC(=O)[C@@H](NC(=O)[C@H](Cc1cnc[nH]1)NC(=O)[C@H](C)NC(=O)[C@H](C)NC(=O)[C@@H](NC(=O)[C@H](CCCCN)NC(=O)[C@H](C)NC(=O)[C@H](CC(C)C)NC(=O)[C@@H](NC(=O)CNC(=O)[C@@H](N)Cc1ccccc1)C(C)C)C(C)C)C(C)C)C(C)C)C(=O)N[C@@H](C)C(=O)N[C@@H](CCC(=O)O)C(=O)N[C@@H](Cc1cnc[nH]1)C(=O)N[C@@H](Cc1ccccc1)C(N)=O [FGVLAKVAAHVVPAIAEHF]

From DBAASP
